In US9826761B2, “Compositions and methods for mitigating dietary sulfur in animals” (SarTec Corporation, priority 2008, dated 2017):

Assays:
[1] = Titration of approx. 200 mM sulfide in fresh rumen fluid with 1 M metal chloride, silver/sulfide electrode; design: species or system Holstein cows; settings: for mVolts (Negative Value): ~200 mM sulfide, fresh rumen fluid
Description: Fresh undiluted rumen fluid was obtained from rumen fistulated Holstein cows. 1.5 ml of a saturated solution of Na2S in water (approximately 2.7 M) was added to 18.5 ml of the rumen fluid. Sodium sulfide solutions were quantified by titration using a silver/sulfide electrode (Orion, Ion Plus Silver/Sulfide 9616BNWP) and a commercial lead standard (0.1 M Pb^2+, Orion 948206). The final concentration for sulfide ion in the rumen fluid was approximately 200 mM. This solution was then titrated with a 1 M solution of MnCl2 in water. The progress of the reaction was followed using the silver/sulfide electrode.
Fresh undiluted rumen fluid was obtained from rumen fistulated Holstein cows. 1.5 ml of saturated solution of Na2S in water (approximately 2.7 M) was added to 18.5 ml of the rumen fluid. The final concentration of sulfide ion in the rumen fluid was approximately 200 mM. This solution was then titrated with a 1 M solution of FeCl2 in water. The progress of the reaction was followed using the same silver/sulfide electrode set-up described above (Orion, Ion Plus Silver/Sulfide 9616BNWP).
Data taken from Examples 1 and 2 above were plotted together in order to gauge the relative efficacy of MnCl2 versus FeCl2 in removing sulfide ion from rumen fluid.

[2] = Titration of approx. 200 mM sulfide in 24 hour old rumen fluid with 1 M MnCl2, BaCl2 or CaCl2, silver/sulfide electrode; design: species or system Holstein cows
Description: 24 hour old undiluted rumen fluid from rumen fistulated Holstein cows was obtained. 4 ml of Na2S in water (approximately 1 M) was added to 16 ml of the rumen fluid. The final concentration of sulfide ion in the rumen fluid was approximately 200 mM. […] The progress of the reaction was followed using the same silver/sulfide electrode set-up described above (Orion, Ion Plus Silver/Sulfide 9616BNWP).

[3] = Precipitating activity: rumen fluid containing manganese compound titrated with 1.0M Na2S, silver/sulfide electrode; design: species or system Holstein cows; settings: for mVolts: 200 mM MnCl2 in rumen fluid
Description: Next, 0.28 g of MnO(II) was placed in a 100 ml beaker and 20 ml of rumen fluid was added. Then 0.17 g of MnO2(IV) was placed in 100 ml beaker and 20 ml of rumen fluid was added. Each of these compositions, in addition to a rumen fluid control, was then titrated with a 1.0M solution of Na2S. The progress of the reaction was followed using the same silver/sulfide electrode set-up described above (Orion, Ion Plus Silver/Sulfide 9616BNWP).

[4] = Effect of MnCl2 supplementation on cattle (feedlot trial); assay type: in vivo, Angus based feeder calves; settings: feeder calves, approx. 0.55 g/head/day MnCl2 and 10.0 g/head/day FeCl2 in supplement with Yucca extract
From the text: In this example, forty-six Angus based feeder calves were blocked by sex (heifers and steers) and assigned within block to one of two treatments. One group (one pen of steers and one pen of heifers) was fed a commercially available feed additive including Yucca extract ([…] Corporation, Anoka, Minn.) mixed into the feedlot supplement. […] The supplement also contained minerals, vitamins, […]), and carrier feed products including corn, barley sprouts, and distillers grains. […] The results (DMI=dry matter intake, ADG=average daily gain) are shown below in Table 5.

Substance: manganese (II) chloride [MnCl2]
- concentration of sulfide ion within the rumen fluid ([1]; addition of 1 M titrant to ~200 mM sulfide in fresh rumen fluid): effective to reduce the concentration of sulfide ion
- mVolts (Negative Value) ([1]; titrant volume 0.0 of 1M MnCl2): 952.6 mVolts
- mVolts (Negative Value) ([1]; titrant volume 0.3 of 1M MnCl2): 950.5 mVolts
- mVolts (Negative Value) ([1]; titrant volume 0.5 of 1M MnCl2): 947.7 mVolts
- mVolts (Negative Value) ([1]; titrant volume 0.7 of 1M MnCl2): 947.8 mVolts
- mVolts (Negative Value) ([1]; titrant volume 0.9 of 1M MnCl2): 940.4 mVolts
- mVolts (Negative Value) ([1]; titrant volume 1.1 of 1M MnCl2): 929.7 mVolts
- mVolts (Negative Value) ([1]; titrant volume 1.4 of 1M MnCl2): 918.4 mVolts
- mVolts (Negative Value) ([1]; titrant volume 1.6 of 1M MnCl2): 899.9 mVolts
- mVolts (Negative Value) ([1]; titrant volume 1.8 of 1M MnCl2): 882.2 mVolts
- mVolts (Negative Value) ([1]; titrant volume 2.0 of 1M MnCl2): 861.5 mVolts
- mVolts (Negative Value) ([1]; titrant volume 2.3 of 1M MnCl2): 850.2 mVolts
- mVolts (Negative Value) ([1]; titrant volume 2.5 of 1M MnCl2): 830.5 mVolts
- mVolts (Negative Value) ([1]; titrant volume 2.7 of 1M MnCl2): 808.9 mVolts
- mVolts (Negative Value) ([1]; titrant volume 2.9 of 1M MnCl2): 777.1 mVolts
- mVolts (Negative Value) ([1]; titrant volume 3.2 of 1M MnCl2): 735.7 mVolts
- mVolts (Negative Value) ([1]; titrant volume 3.4 of 1M MnCl2): 702.0 mVolts
- mVolts (Negative Value) ([1]; titrant volume 3.6 of 1M MnCl2): 686.7 mVolts
- mVolts (Negative Value) ([1]; titrant volume 3.9 of 1M MnCl2): 678.2 mVolts
- mVolts (Negative Value) ([1]; titrant volume 4.1 of 1M MnCl2): 672.4 mVolts
- mVolts (Negative Value) ([1]; titrant volume 4.3 of 1M MnCl2): 667.8 mVolts
- mVolts (Negative Value) ([1]; titrant volume 4.5 of 1M MnCl2): 664.4 mVolts
- mVolts (Negative Value) ([1]; titrant volume 4.7 of 1M MnCl2): 661.8 mVolts
- mVolts (Negative Value) ([1]; titrant volume 4.9 of 1M MnCl2): 658.9 mVolts
- mVolts (Negative Value) ([1]; titrant volume 5.2 of 1M MnCl2): 656.6 mVolts
- mVolts (Negative Value) ([1]; titrant volume 5.4 of 1M MnCl2): 654.6 mVolts
- mVolts (Negative Value) ([1]; titrant volume 6.0 of 1M MnCl2): 649.8 mVolts
- mVolts ([2]; Volume 0.0 of 1.0M MnCl2, ~200 mM sulfide): 934.0 mVolts
- mVolts ([2]; Volume 0.2 of 1.0M MnCl2, ~200 mM sulfide): 931.7 mVolts
- mVolts ([2]; Volume 0.4 of 1.0M MnCl2, ~200 mM sulfide): 931.6 mVolts
- mVolts ([2]; Volume 0.6 of 1.0M MnCl2, ~200 mM sulfide): 930.7 mVolts
- mVolts ([2]; Volume 0.8 of 1.0M MnCl2, ~200 mM sulfide): 929.4 mVolts
- mVolts ([2]; Volume 1.0 of 1.0M MnCl2, ~200 mM sulfide): 926.6 mVolts
- mVolts ([2]; Volume 1.2 of 1.0M MnCl2, ~200 mM sulfide): 921.4 mVolts
- mVolts ([2]; Volume 1.4 of 1.0M MnCl2, ~200 mM sulfide): 906.6 mVolts
- mVolts ([2]; Volume 1.7 of 1.0M MnCl2, ~200 mM sulfide): 903.0 mVolts
- mVolts ([2]; Volume 1.8 of 1.0M MnCl2, ~200 mM sulfide): 863.5 mVolts
- mVolts ([2]; Volume 1.9 of 1.0M MnCl2, ~200 mM sulfide): 855.2 mVolts
- mVolts ([2]; Volume 2.0 of 1.0M MnCl2, ~200 mM sulfide): 848.1 mVolts
- mVolts ([2]; Volume 2.1 of 1.0M MnCl2, ~200 mM sulfide): 841.7 mVolts
- mVolts ([2]; Volume 2.2 of 1.0M MnCl2, ~200 mM sulfide): 834.5 mVolts
- mVolts ([2]; Volume 2.3 of 1.0M MnCl2, ~200 mM sulfide): 829.2 mVolts
- mVolts ([2]; Volume 2.4 of 1.0M MnCl2, ~200 mM sulfide): 823.9 mVolts
- mVolts ([2]; Volume 2.5 of 1.0M MnCl2, ~200 mM sulfide): 817.9 mVolts
- mVolts ([2]; Volume 2.7 of 1.0M MnCl2, ~200 mM sulfide): 811.4 mVolts
- mVolts ([2]; Volume 2.8 of 1.0M MnCl2, ~200 mM sulfide): 804.0 mVolts
- mVolts ([2]; Volume 2.9 of 1.0M MnCl2, ~200 mM sulfide): 794.9 mVolts
- mVolts ([2]; Volume 3.0 of 1.0M MnCl2, ~200 mM sulfide): 783.1 mVolts
- mVolts ([2]; Volume 3.1 of 1.0M MnCl2, ~200 mM sulfide): 767.9 mVolts
- mVolts ([2]; Volume 3.3 of 1.0M MnCl2, ~200 mM sulfide): 746.6 mVolts
- mVolts ([2]; Volume 3.4 of 1.0M MnCl2, ~200 mM sulfide): 733.1 mVolts
- mVolts ([2]; Volume 3.5 of 1.0M MnCl2, ~200 mM sulfide): 718.3 mVolts
- mVolts ([2]; Volume 3.6 of 1.0M MnCl2, ~200 mM sulfide): 704.2 mVolts
- mVolts ([2]; Volume 3.7 of 1.0M MnCl2, ~200 mM sulfide): 694.2 mVolts
- mVolts ([2]; Volume 3.8 of 1.0M MnCl2, ~200 mM sulfide): 687.0 mVolts
- mVolts ([2]; Volume 3.9 of 1.0M MnCl2, ~200 mM sulfide): 679.7 mVolts
- mVolts ([2]; Volume 4.0 of 1.0M MnCl2, ~200 mM sulfide): 674.1 mVolts
- mVolts ([2]; Volume 4.2 of 1.0M MnCl2, ~200 mM sulfide): 670.1 mVolts
- mVolts ([2]; Volume 4.4 of 1.0M MnCl2, ~200 mM sulfide): 665.4 mVolts
- mVolts ([2]; Volume 4.6 of 1.0M MnCl2, ~200 mM sulfide): 661.8 mVolts
- mVolts ([2]; Volume 5.0 of 1.0M MnCl2, ~200 mM sulfide): 657.1 mVolts
- total sulfide ion concentrations in the rumen fluid versus BaCl2 and CaCl2 ([2]; ~200 mM sulfide): substantially lower total sulfide ion concentrations
- mVolts ([3]; Vol 1M Na2S 0.0): 533.2 mVolts
- mVolts ([3]; Vol 1M Na2S 0.3): 617.3 mVolts
- mVolts ([3]; Vol 1M Na2S 0.5): 631.2 mVolts
- mVolts ([3]; Vol 1M Na2S 0.8): 640.0 mVolts
- mVolts ([3]; Vol 1M Na2S 1.1): 641.8 mVolts
- mVolts ([3]; Vol 1M Na2S 1.4): 647.5 mVolts
- mVolts ([3]; Vol 1M Na2S 1.7): 649.0 mVolts
- mVolts ([3]; Vol 1M Na2S 2.1): 652.1 mVolts
- mVolts ([3]; Vol 1M Na2S 2.3): 653.0 mVolts
- mVolts ([3]; Vol 1M Na2S 2.6): 652.6 mVolts
- mVolts ([3]; Vol 1M Na2S 2.9): 658.0 mVolts
- mVolts ([3]; Vol 1M Na2S 3.2): 667.2 mVolts
- mVolts ([3]; Vol 1M Na2S 3.4): 678.8 mVolts
- mVolts ([3]; Vol 1M Na2S 3.5): 691.3 mVolts
- mVolts ([3]; Vol 1M Na2S 3.6): 710.6 mVolts
- mVolts ([3]; Vol 1M Na2S 3.8): 742.0 mVolts
- mVolts ([3]; Vol 1M Na2S 3.9): 770.9 mVolts
- mVolts ([3]; Vol 1M Na2S 4.0): 783.4 mVolts
- mVolts ([3]; Vol 1M Na2S 4.1): 804.1 mVolts
- mVolts ([3]; Vol 1M Na2S 4.2): 820.2 mVolts
- mVolts ([3]; Vol 1M Na2S 4.3): 837.8 mVolts
- mVolts ([3]; Vol 1M Na2S 4.4): 851.7 mVolts
- mVolts ([3]; Vol 1M Na2S 4.5): 863.4 mVolts
- mVolts ([3]; Vol 1M Na2S 4.7): 877.0 mVolts
- mVolts ([3]; Vol 1M Na2S 4.8): 883.6 mVolts
- mVolts ([3]; Vol 1M Na2S 4.9): 888.2 mVolts
- mVolts ([3]; Vol 1M Na2S 5.0): 893.2 mVolts
- precipitating sulfide ion versus MnO(II) and MnO2(IV) ([3]; rumen fluid titrated with 1.0M Na2S): much more effective in precipitating sulfide ion
- ADG (average daily gain) [4]: 3.58 lb/head/day
- DMI (dry matter intake) [4]: 23.18 lb/head/day
- End wt. [4]: 1147.5 lb
- Feed Efficiency (DM/gain) [4]: 6.48
